Where two headings read alike, the source gives them in different places.
Tests used:
Type in all cases: biochemical
PKA = PKA (Homo sapiens, UniProt P17612); test: PKA kinase inhibition, Z'-LYTE FRET assay
PDK-1 = target: T1, PDK-1 (Homo sapiens, UniProt O15530); test: PDK-1 kinase inhibition ELISA assay (phosphorylation of His6-tagged SGK1 S422D by PDK-1)
T1 sequence (O15530 1-556): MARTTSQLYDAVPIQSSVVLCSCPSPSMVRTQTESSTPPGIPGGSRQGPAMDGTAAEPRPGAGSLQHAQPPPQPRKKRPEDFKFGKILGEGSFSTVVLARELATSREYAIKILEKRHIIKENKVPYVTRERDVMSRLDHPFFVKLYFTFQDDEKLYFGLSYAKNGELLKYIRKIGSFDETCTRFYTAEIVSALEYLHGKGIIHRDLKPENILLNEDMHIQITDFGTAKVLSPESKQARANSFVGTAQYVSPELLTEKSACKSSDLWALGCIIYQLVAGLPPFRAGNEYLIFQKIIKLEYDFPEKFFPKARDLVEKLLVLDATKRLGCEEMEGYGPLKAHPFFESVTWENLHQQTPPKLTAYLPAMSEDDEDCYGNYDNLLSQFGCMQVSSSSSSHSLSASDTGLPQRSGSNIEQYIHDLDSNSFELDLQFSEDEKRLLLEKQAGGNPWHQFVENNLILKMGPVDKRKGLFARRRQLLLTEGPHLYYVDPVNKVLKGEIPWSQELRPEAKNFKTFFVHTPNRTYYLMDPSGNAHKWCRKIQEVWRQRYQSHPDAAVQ

S6K = S6K (Homo sapiens, UniProt P23443); test: S6K kinase inhibition, Z'-LYTE FRET assay; conditions: 100 μM ATP
Excerpt: (§1) The ability of illustrative Benzo[c][2,7]naphthyridine Derivatives to inhibit PKA, Akt1, S6K in vitro can be determined using a Fluorescence Resonance Energy Transfer (FRET) assay, such as a Z′-LYTE™ Kinase Assay Platform, commercially available from Invitrogen (c.f. Rodems et al., ASSAY Drug Devel. Technol. 1:9-19 (2002) and Zhang et al., J. Biomol. Screen. 4:67-73 (1999)). Z′-Lyte™ assay is an in vitro FRET-based assay that utilizes differential sensitivity of phosphorylated and non-phosphorylated peptides to proteolytic cleavage. The peptide substrate (also available from Invitrogen for each of PKA, Akt1 and S6K) is labeled with two different fluorophores, a fluorescence donor at one end of the peptide and a fluorescence acceptor at the other end of the peptide. In the primary kinase reaction, the kinase phosphorylates the peptide substrate in the presence of ATP. In the secondary reaction, a site-specific protease recognizes and cleaves non-phosphorylated peptides, but not phosphorylated peptides. Cleavage disrupts FRET between the donor and acceptor fluorophores on the peptide, whereas uncleaved phosphorylated peptides maintain FRET. Based on a formula that uses the ratio of donor emission (at 460 nm) to acceptor emission (at […]) after excitation of the donor fluorophore at 400 nm, the extent of phosphorylation of the peptide substrates is calculated. IC50 values of illustrative Benzo[c][2,7]naphthyridine Derivatives, shown in Table 12, are calculated using LSW Data Analysis package add-in for Excel (Microsoft).

Akt1 = Akt1 (Homo sapiens, UniProt P31749); test: Akt1 kinase inhibition, Z'-LYTE FRET assay; conditions: 100 μM ATP
Excerpt: as §1

[1] = PDK-1 ELISA, Table 11, read-out: Average IC50

Chain of Akt1 (P31749 whole entry, species assumed): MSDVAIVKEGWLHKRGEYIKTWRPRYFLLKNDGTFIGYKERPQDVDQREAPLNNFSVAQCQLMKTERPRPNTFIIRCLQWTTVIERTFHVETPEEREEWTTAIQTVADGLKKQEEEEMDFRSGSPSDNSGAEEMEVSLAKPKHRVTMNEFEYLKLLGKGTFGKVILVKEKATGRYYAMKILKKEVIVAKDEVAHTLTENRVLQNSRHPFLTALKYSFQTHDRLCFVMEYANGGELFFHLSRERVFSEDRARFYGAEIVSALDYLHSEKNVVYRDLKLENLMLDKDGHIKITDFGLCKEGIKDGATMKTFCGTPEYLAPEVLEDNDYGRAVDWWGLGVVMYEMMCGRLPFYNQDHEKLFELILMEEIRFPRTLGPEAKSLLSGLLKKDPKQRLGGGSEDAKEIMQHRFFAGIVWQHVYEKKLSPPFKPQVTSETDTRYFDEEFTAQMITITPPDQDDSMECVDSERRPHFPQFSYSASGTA
Chain of S6K (P23443 whole entry): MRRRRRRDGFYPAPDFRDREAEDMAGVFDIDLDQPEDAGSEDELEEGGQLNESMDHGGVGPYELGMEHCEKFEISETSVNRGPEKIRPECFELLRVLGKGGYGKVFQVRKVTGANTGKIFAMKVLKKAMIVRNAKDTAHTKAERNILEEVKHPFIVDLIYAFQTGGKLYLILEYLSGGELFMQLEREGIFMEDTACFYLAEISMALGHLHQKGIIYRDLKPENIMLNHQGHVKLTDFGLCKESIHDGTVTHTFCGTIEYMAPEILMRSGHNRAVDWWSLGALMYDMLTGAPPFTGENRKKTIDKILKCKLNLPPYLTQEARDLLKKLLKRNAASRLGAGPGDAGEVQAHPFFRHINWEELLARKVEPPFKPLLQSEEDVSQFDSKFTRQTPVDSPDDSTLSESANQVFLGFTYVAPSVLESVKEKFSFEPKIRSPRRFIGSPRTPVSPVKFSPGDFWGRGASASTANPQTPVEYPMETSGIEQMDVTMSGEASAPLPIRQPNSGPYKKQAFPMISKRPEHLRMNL

SMILES	IC50 (PKA; 20 μM ATP)	IC50 (PKA; 100 μM ATP)	IC50 (PDK-1; [1])	IC50 (S6K)	IC50 (PDK-1)	IC50 (Akt1)
COc1cc2ncc3c(N)nc(-c4cncc(OC[C@@H](N)CN5CCc6ccccc65)c4)cc3c2cc1OC [Ib-46, 2-(5-{[(2S)-2-amino-3-(2,3-dihydro-1H-indol-1-yl)propyl]oxy}pyridin-3-yl)-8,9-dimethoxybenzo[c]-2,7-naphthyridin-4-amine]	< 32 nM	179 nM	8 nM	65 nM		
Nc1nc(-c2cncc(OC[C@@H](N)Cc3ccccc3)c2)cc2c1cnc1cc(/C=C/CCN3CCCC3)ccc12 [Ia-4, 2-(5-{[(2S)-2-amino-3-phenylpropyl]oxy}pyridin-3-yl)-8-[(1E)-4-pyrrolidin-1-ylbut-1-en-1-yl]benzo[c]-2,7-naphthyridin-4-amine]	< 32 nM	70 nM	27 nM	89 nM		
COCCN(C)C[C@H](N)COc1cncc(-c2cc3c(cnc4cc(OC)c(OC)cc43)c(N)n2)c1 [Ib-38, (2S)-3-{[5-(4-amino-8,9-dimethoxybenzo[c]-2,7-naphthyridin-2-yl)pyridin-3-yl]oxy}-N1-(2-methoxyethyl)-N1-methylpropane-1,2-diamine]	210 nM	1040 nM	9 nM	213 to 365 nM		
COc1cc2ncc3c(N)nc(-c4cncc(O[C@H]5CCCNC5)c4)cc3c2cc1OC [Ib-39, 8,9-dimethoxy-2-{5-[(3S)-piperidin-3-yloxy]pyridin-3-yl}benzo[c]-2,7-naphthyridin-4-amine]	> 4000 nM	> 2000 nM	84 nM	≥ 1700 nM		
COc1cc2ncc3c(N)nc(-c4cncc(O[C@@H]5CCCNC5)c4)cc3c2cc1OC [Ib-33, 8,9-dimethoxy-2-{5-[(3R)-piperidin-3-yloxy]pyridin-3-yl}benzo[c]-2,7-naphthyridin-4-amine]		368 nM	8 nM	138 nM		
COCCN(C[C@H](N)COc1cncc(-c2cc3c(cnc4cc(OC)c(OC)cc43)c(N)n2)c1)c1ccccc1 [Ib-34, (2S)-3-{[5-(4-amino-8,9-dimethoxybenzo[c]-2,7-naphthyridin-2-yl)pyridin-3-yl]oxy}-N1-(2-methoxyethyl)-N1-phenylpropane-1,2-diamine]	< 32 nM	116 nM	6 nM	61 to 130 nM		
COc1cc2ncc3c(N)nc(-c4cncc(OC[C@@H](N)Cc5ccc(NC(=O)OCc6ccccc6)cc5)c4)cc3c2cc1OC [Ib-23]		> 2000 nM	> 100 nM	> 2000 nM		
COc1cc2ncc3c(N)nc(-c4cncc(OC[C@@H](N)CN(C)Cc5ccccc5)c4)cc3c2cc1OC [Ib-27, (2S)-3-{[5-(4-amino-8,9-dimethoxybenzo[c]-2,7-naphthyridin-2-yl)pyridin-3-yl]oxy}-N1-benzyl-N1-methylpropane-1,2-diamine]		110 to 217 nM	6 nM	37 to 43 nM		
COc1cc2ncc3c(N)nc(-c4cncc(OC5CCNCC5)c4)cc3c2cc1OC [Ib-40, 8,9-Dimethoxy-2-[5-(piperidin-4-yloxy)pyridin-3-yl]benzo[c]-2,7-naphthyridin-4-amine]	> 4000 nM	> 2000 nM	117 nM	> 2000 nM		
COc1cc2c(cc1OCCCN1CCN(C)CC1)ncc1c(N)nc(-n3ccnc3)cc12 [Ia-14, 2-(1H-imidazol-1-yl)-9-methoxy-8-(3-(4-methylpiperazin-1-yl)propoxy)benzo[c][2,7]naphthyridin-4-amine]	> 10000 nM		356 nM			350 nM
CCN1CCN(CCC#Cc2ccc3c(c2)ncc2c(N)nc(-n4ccnc4)cc23)CC1 [Ia-35, 8-[4-(4-ethylpiperazin-1-yl)but-1-yn-1-yl]-2-(1H-imidazol-1-yl)benzo[c]-2,7-naphthyridin-4-amine]	6000 nM		493 nM			2900 nM
COc1cc2ncc3c(N)nc(-c4cncc(OC[C@@H]5CN(c6cccc(F)c6)C(=O)N5)c4)cc3c2cc1OC [Ib-35, (4S)-4-({[5-(4-amino-8,9-dimethoxybenzo[c]-2,7-naphthyridin-2-yl)pyridin-3-yl]oxy}methyl)-1-(3-fluorophenyl)imidazolidin-2-one]	> 4000 nM	> 2000 nM	206 nM	≥ 1740 nM		
CC(C)(C)OC(=O)N[C@H](COc1cncc(-c2cc3c(cnc4cc(Br)ccc43)c(N)n2)c1)Cc1ccccc1 [Ia-7, tert-butyl ((1S)-2-{[5-(4-amino-8-bromobenzo[c]-2,7-naphthyridin-2-yl)pyridin-3-yl]oxy}-1-benzylethyl)carbamate]	> 20000 nM		> 5000 nM			> 20000 nM
COc1cc2ncc3c(N)nc(-c4cncc(OC[C@H](N)Cc5cccc(C(F)(F)F)c5)c4)cc3c2cc1OC [Ib-28, 2-[5-({(2R)-2-amino-3-[3-(trifluoromethyl)phenyl]propyl}oxy)pyridin-3-yl]-8,9-dimethoxybenzo[c]-2,7-naphthyridin-4-amine]			21 nM	763 nM		
CCN1CCN(CCC#Cc2ccc3ncc4c(N)nc(-n5ccnc5)cc4c3c2)CC1 [Ia-18, 9-[4-(4-Ethylpiperazin-1-yl)but-1-yn-1-yl]-2-(1H-imidazol-1-yl)benzo[c]-2,7-naphthyridin-4-amine]	> 10000 nM		> 3000 nM			> 10000 nM

The remaining lines, values ahead:

IC50 (PKA; 20 μM ATP)	IC50 (PKA; 100 μM ATP)	IC50 (PDK-1; [1])	IC50 (S6K)	IC50 (PDK-1)	IC50 (Akt1)	SMILES
< 32 nM	223 nM	4 nM	30 to 133 nM			COc1cc2ncc3c(N)nc(-c4cncc(OC[C@@H](N)CNc5cccc(F)c5)c4)cc3c2cc1OC [Ib-36, (2S)-3-{[5-(4-amino-8,9-dimethoxybenzo[c]-2,7-naphthyridin-2-yl)pyridin-3-yl]oxy}-N1-(3-fluorophenyl)propane-1,2-diamine]
	> 2000 nM		542 nM	43 nM		COCCOc1cc2ncc3c(N)nc(-c4cccnc4)cc3c2cc1OC [Ia-2, 9-Methoxy-8-(2-methoxyethoxy)-2-pyridin-3-ylbenzo[c]-2,7-naphthyridin-4-amine]
		6 nM	235 nM			COc1cc2ncc3c(N)nc(-c4cncc(OC[C@H](C)N)c4)cc3c2cc1OC [Ib-31, 2-(5-{[(2S)-2-aminopropyl]oxy}pyridin-3-yl)-8,9-dimethoxybenzo[c]-2,7-naphthyridin-4-amine]
		2 nM	97 nM			COc1cc2ncc3c(N)nc(-c4cncc(OC[C@@H](C)N)c4)cc3c2cc1OC [Ib-30, 2-(5-{[(2R)-2-aminopropyl]oxy}pyridin-3-yl)-8,9-dimethoxybenzo[c]-2,7-naphthyridin-4-amine]
< 32 nM	183 nM	3 nM	21 to 102 nM			COc1cc2ncc3c(N)nc(-c4cncc(OC[C@@H](N)Cc5ccc(F)cc5)c4)cc3c2cc1OC [Ib-41, 2-(5-{[(2S)-2-amino-3-(4-fluorophenyl)propyl]oxy}pyridin-3-yl)-8,9-dimethoxybenzo[c]-2,7-naphthyridin-4-amine]
> 20000 nM		893 nM			300 nM	COc1cc2c(cc1N1CCC(N3CCCC3)CC1)ncc1c(N)nc(-c3cccnc3)cc12 [Ia-20, 9-methoxy-2-pyridin-3-yl-8-(4-pyrrolidin-1-ylpiperidin-1-yl)benzo[c]-2,7-naphthyridin-4-amine]
> 20000 nM				74 nM	200 nM	CCOc1cc2ncc3c(N)nc(-c4cccnc4)cc3c2cc1OCC [Ia-46, 8,9-Diethoxy-2-pyridin-3-ylbenzo[c]-2,7-naphthyridin-4-amine]
> 20000 nM		754 nM			250 nM	COc1cc2c(cc1OCC1CCN(C)CC1)ncc1c(N)nc(-c3cnccn3)cc12 [Ia-32]
		8 nM	76 nM			COc1cc2ncc3c(N)nc(-c4cncc(OC[C@@H](N)Cc5cccc(Cl)c5)c4)cc3c2cc1OC [Ib-29, 2-(5-{[(2S)-2-amino-3-(3-chlorophenyl)propyl]oxy}pyridin-3-yl)-8,9-dimethoxybenzo[c]-2,7-naphthyridin-4-amine]

— US20080293712A1, “Benzo[C][2,7]Naphtyridine Derivatives, Methods of Making Thereof and Methods of Use Thereof” (WYETH, priority 2007, published 2008)
